Measurements taken from patent US11319347B2, “Peptide compound and method for producing same, composition for screening use, and method for selecting peptide compound” (FUJIFILM Corporation, priority 2017, dated 2022).
pKd: −log10 of the molar value. Starred links: 1 amine or outer side, 2 acyl side, 3 side chain; linkers in the order of their positions; H or OH if unused. Positions of bridges follow the written chain, without caps; N, C: chain ends. Non-standard residues stand in square brackets, D forms with d. Residues, ends and D or L forms follow the SMILES beside them. ξ: configuration not given here. 2Pal(6-thiazolin-2-yl-4R-CO) = O=C([C@H](Cc1cccc(C2=N[C@H](C(=O)[*:3])CS2)n1)N[*:1])[*:2]; Ile(3ξ) = CCC(C)[C@H](N)C(=O)O

What follows are compounds tested against Mcl-1 (assay: Binding of synthetic peptide to target protein by surface plasmon resonance (SPR, Biacore T200)). Details: 25° C., immobilized Mcl-1, Table 51, read-out: Binding evaluation result (KD).
Method: Preparation of Target Protein
A plasmid construct was prepared in which a gene containing the amino acid 1-172 portion of MCL-1 was introduced into plasmid pET28a, and a His6 tag, MBP, and a TEV protease recognition sequence were attached to the N terminal side thereof. This plasmid was transformed into E. coli strain BL21 (DE3) RIPL which was then cultured at 30° C. In a case where the O.D. reached 0.8, IPTG […] was added to induce large-scale expression, followed by culturing at 16° C. overnight. The recovered bacterial cells were suspended in Lysis Buffer A (25 mmol/L Tris (pH 7.5), 150 mmol/L NaCl), and then disrupted by sonication. This was followed by centrifugation at 15 krpm for 15 minutes. The supernatant after centrifugation was purified using a Ni-NTA resin (manufactured by QIAGEN GmbH). The sample adsorbed to the Ni-NTA resin was washed with Lysis Buffer A containing 15 mmol/L imidazole and then eluted with Lysis Buffer A containing 200 mmol/L imidazole. The sample was stored at −80° C. after substitution with Lysis buffer by dialysis.
Evaluation of Binding of Synthetic Peptide to Target Protein Using Surface Plasmon Resonance (SPR)
An SPR experiment for analyzing the interaction of a synthetic peptide with Mel-1 was carried out at 25° C. using Biacore T200 (manufactured by GE Healthcare Inc.). The synthetic peptide was added to the immobilized protein, and the interaction therebetween was evaluated.
A buffer obtained by adding dimethylformamide (DMF) or dimethylsulfoxide (DMSO) to a final concentration of 1 vol % to HBS-EP+ (manufactured by GE Healthcare Inc.) was used as a running buffer. Mcl-1 was immobilized on a Biacore Sensor Chip Series S Sensor Chip CM5 (manufactured by GE Healthcare Inc.) using an Amine Coupling Kit (manufactured by GE Healthcare Inc.). In order to measure the dissociation constant (KD), each synthetic peptide was added at multiple concentrations to obtain a sensorgram of binding to immobilized Mel-1.
The analysis of the obtained sensorgram was carried out using T200 evaluation software (manufactured by GE Healthcare Inc.). Solvent correction to DMF or DMSO was carried out, and then the KD was determined by equilibrium value analysis using a sensorgram obtained by subtracting the sensorgram to a flow cell in which Mcl-1 is not immobilized.
One having a KD of less than 50 μmol/L is denoted as A, and one having a KD of 50 μmol/L or more is denoted as B.
Binding of the synthetic peptide to the target protein was evaluated in the same manner as described above.
`CC(C)C[C@@H]1NC(=O)CNC(=O)[C@@H]2CCCN2C(=O)[C@H](CCC(=O)O)NC(=O)[C@H](Cc2ccccc2)NC(=O)[C@H](CO)NC(=O)[C@@H]2CSC(=N2)c2cccc(n2)C[C@@H](C(N)=O)NC(=O)[C@H](CC(C)C)NC(=O)[C@H](C(C)C)NC(=O)[C@H](CCCNC(=N)N)NC(=O)[C@H](Cc2ccccc2)NC(=O)[C@H](CC(C)C)NC(=O)[C@H](Cc2c[nH]c3ccccc23)NC(=O)[C@H](Cc2c[nH]c3ccccc23)NC1=O` [Cyclic peptide a-5-5] (SFEPGLWWLFRVL[2Pal(6-thiazolin-2-yl-4R-CO)]-NH2; lactam N-14) showed a pKd of over 4.30. For `CCC(C)[C@@H]1NC(=O)[C@@H]2CCCN2C(=O)[C@H](Cc2c[nH]c3ccccc23)NC(=O)[C@H](CC(C)C)NC(=O)[C@H](CC(C)C)NC(=O)[C@H](C(C)C)NC(=O)[C@H](Cc2c[nH]c3ccccc23)NC(=O)[C@@H]2CCCN2C(=O)[C@@H]2CSC(=N2)c2cccc(n2)C[C@@H](C(N)=O)NC(=O)[C@H](CC(C)C)NC(=O)[C@H](CO)NC(=O)[C@@H]2CCCN2C(=O)[C@H](C(C)C)NC(=O)[C@H](CC(C)C)NC1=O` (stereo partly drawn) [Cyclic peptide a-5-7] (PWVLLWP[Ile(3ξ)]LVPSL[2Pal(6-thiazolin-2-yl-4R-CO)]-NH2; lactam N-14), the pKd was at most 4.30. `CC(C)C[C@@H]1NC(=O)[C@H](Cc2ccccc2)NC(=O)[C@H](C)NC(=O)[C@@H]2CCCN2C(=O)[C@H](Cc2c[nH]c3ccccc23)NC(=O)[C@H](CC(C)C)NC(=O)[C@@H](CS)NC(=O)[C@H](C)NC(=O)C(Cc2c[nH]c3ccccc23)NC(=O)[C@H](CO)NC(=O)C(CCCNC(=N)N)NC(=O)[C@@H]2CSC(=N2)c2cccc(n2)C[C@H](C(N)=O)NC(=O)[C@H](Cc2ccc(O)cc2)NC(=O)[C@H](Cc2c[nH]c3ccccc23)NC1=O` (stereo partly shown) [Cyclic peptide a-5-1] gave a pKd of at most 4.30. `CC(C)C[C@@H]1NC(=O)[C@H](Cc2c[nH]c3ccccc23)NC(=O)[C@@H]2CCCN2C(=O)[C@H](Cc2c[nH]c3ccccc23)NC(=O)[C@H](CC(C)C)NC(=O)[C@H](C(C)C)NC(=O)[C@H](CS)NC(=O)[C@H](Cc2c[nH]c3ccccc23)NC(=O)[C@H](CO)NC(=O)[C@@H]2CSC(=N2)c2cccc(n2)C[C@@H](C(N)=O)NC(=O)CNC(=O)[C@H](Cc2c[nH]c3ccccc23)NC(=O)[C@H](Cc2ccccc2)NC(=O)[C@H](C(C)C)NC1=O` [Cyclic peptide a-5-6] (SWCVLWPWLVFWG[2Pal(6-thiazolin-2-yl-4R-CO)]-NH2; lactam N-14) showed a pKd of at most 4.30. For `CC(C)C[C@@H]1NC(=O)[C@H](C(C)C)NC(=O)[C@H](CO)NC(=O)[C@H](Cc2c[nH]c3ccccc23)NC(=O)[C@@H]2CSC(=N2)c2cccc(n2)C[C@@H](C(N)=O)NC(=O)[C@H](CO)NC(=O)[C@H](C(C)C)NC(=O)[C@H](CO)NC(=O)[C@@H]2CCCN2C(=O)[C@H](C(C)C)NC(=O)[C@H](Cc2ccccc2)NC(=O)[C@H](Cc2c[nH]c3ccccc23)NC(=O)[C@@H]2CCCN2C(=O)[C@H](Cc2c[nH]c3ccccc23)NC1=O` [Cyclic peptide a-5-4] (WSVLWPWFVPSVS[2Pal(6-thiazolin-2-yl-4R-CO)]-NH2; lactam N-14), the pKd was over 4.30. Compound `CC(C)C[C@@H]1NC(=O)[C@H](C(C)C)NC(=O)[C@H](CO)NC(=O)[C@H](Cc2ccccc2)NC(=O)[C@H](C)NC(=O)[C@H](Cc2c[nH]c3ccccc23)NC(=O)[C@@H]2CSC(=N2)c2cccc(n2)C[C@H](C(N)=O)NC(=O)[C@H](Cc2c[nH]c3ccccc23)NC(=O)[C@H](C(C)C)NC(=O)[C@@H]2CCCN2C(=O)[C@H](Cc2ccccc2)NC(=O)[C@H](Cc2c[nH]c3ccccc23)NC(=O)[C@@H]2CCCN2C(=O)[C@H](Cc2c[nH]c3ccccc23)NC1=O` [Cyclic peptide a-5-2] has a pKd of at most 4.30.

Same assay, conditions: immobilized Mcl-1, Table 53 (peptides from mRNA display), read-out: Binding evaluation result (KD)
`CC[C@H](C)[C@@H]1NC(=O)[C@H](CO)NC(=O)[C@H](CO)NC(=O)[C@H](CC(C)C)NC(=O)[C@H]([C@@H](C)O)NC(=O)[C@H]([C@@H](C)O)NC(=O)[C@@H]2CSC(=N2)c2cc(cs2)C[C@@H](C(N)=O)NC(=O)[C@H](CCCNC(=N)N)NC(=O)[C@H](CCCNC(=N)N)NC(=O)[C@H](CC(=O)O)NC(=O)[C@H](C(C)C)NC(=O)[C@H](CCC(N)=O)NC(=O)[C@H](CC(=O)O)NC(=O)CNC1=O` [a-6-5] was tested, and the pKd was over 4.30. `CC[C@H](C)[C@@H]1NC(=O)[C@H](CCC(N)=O)NC(=O)[C@H](CCCNC(=N)N)NC(=O)[C@H](CC(C)C)NC(=O)CNC(=O)[C@H](CC(=O)O)NC(=O)[C@H](C(C)C)NC(=O)[C@H](C(C)C)NC(=O)[C@H](CC(N)=O)NC(=O)[C@@H]2CCCN2C(=O)[C@@H]2CSC(=N2)c2cc(cs2)CC(C(N)=O)NC(=O)[C@H]([C@@H](C)O)NC(=O)[C@H](CC(=O)O)NC(=O)CNC1=O` (stereo partly shown) [a-6-6] was tested, and the pKd was over 4.30. `CC[C@H](C)[C@@H]1NC(=O)[C@H](CO)NC(=O)[C@H](CCCNC(=N)N)NC(=O)[C@H](CC(C)C)NC(=O)[C@H]([C@@H](C)O)NC(=O)[C@H](CO)NC(=O)[C@H](C)NC(=O)[C@H]([C@@H](C)O)NC(=O)[C@H](CCC(=O)O)NC(=O)[C@H](CCC(=O)O)NC(=O)[C@@H]2CSC(=N2)c2cc(cs2)C[C@@H](C(N)=O)NC(=O)[C@H](CO)NC(=O)[C@H](CC(=O)O)NC(=O)CNC1=O` [a-6-4] showed a pKd of over 4.30. Work on `CC(C)C[C@@H]1NC(=O)[C@@H]2CCCN2C(=O)[C@H](Cc2c[nH]c3ccccc23)NC(=O)[C@H](Cc2ccccc2)NC(=O)[C@H]([C@H](C)O)NC(=O)[C@@H]2CCCN2C(=O)[C@H](CC(=O)O)NC(=O)[C@H](CS)NC(=O)[C@H](Cc2ccc(O)cc2)NC(=O)[C@H](CCC(=O)O)NC(=O)[C@@H]2CSC(=N2)c2cc(cs2)C[C@@H](C(N)=O)NC(=O)[C@H](CCCNC(=N)N)NC(=O)[C@H](CCCNC(=N)N)NC(=O)[C@H](Cc2ccccc2)NC1=O` [a-6-1] yielded a pKd of over 4.30. In the case of `CC(C)C[C@@H]1NC(=O)[C@H](CC(=O)O)NC(=O)[C@H](CCC(N)=O)NC(=O)[C@H](CC(=O)O)NC(=O)[C@H](CCCCN)NC(=O)[C@H](Cc2ccc(O)cc2)NC(=O)[C@H](CC(=O)O)NC(=O)[C@H](Cc2ccc(O)cc2)NC(=O)[C@H](CCC(=O)O)NC(=O)[C@H](Cc2ccccc2)NC(=O)[C@H](C)NC(=O)CNC(=O)[C@H](C)NC(=O)[C@@H]2CSC(=N2)c2cc(cs2)C[C@H](C(N)=O)NC1=O` [a-6-2], the pKd was at most 4.30. With `CC[C@H](C)[C@@H]1NC(=O)[C@H](CC(=O)O)NC(=O)[C@@H]2CSC(=N2)c2cc(cs2)CC(C(N)=O)NC(=O)[C@H](CCCNC(=N)N)NC(=O)[C@H](CC(=O)O)NC(=O)CNC(=O)[C@H](CC(=O)O)NC(=O)[C@H](CCCCN)NC(=O)[C@H](Cc2ccc(O)cc2)NC(=O)[C@H](CC(=O)O)NC(=O)[C@H](Cc2ccc(O)cc2)NC(=O)[C@H](C(C)C)NC(=O)CNC(=O)[C@H](C(C)C)NC1=O` (stereo partly shown) [a-6-3] the pKd was at most 4.30. `CC(C)C[C@H](NC(=O)[C@H](CC(=O)O)NC(=O)[C@H](CCCCN)NC(=O)[C@@H](NC(=O)[C@H](C)NC(=O)[C@H](C)NC(=O)[C@H]1Cc2csc(c2)C2=N[C@@H](CS2)C(=O)N[C@@H](CC(=O)O)C(=O)N[C@@H](CO)C(=O)N[C@@H](Cc2ccc(O)cc2)C(=O)N1)C(C)C)C(=O)N[C@@H](CCC(=O)O)C(=O)N[C@@H](CC(N)=O)C(=O)N[C@@H](C)C(=O)N[C@@H](Cc1csc(C#N)c1)C(N)=O` [a-6-7] gave a pKd of over 4.30.
